Measurements taken from PubChem BioAssay (NCI).
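Exposure lasted 48 hours, with cells grown in 96-well plates and compounds tested at five concentrations. At the GI50, growth is halved. TGI marks complete inhibition of growth.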

How the values were obtained:
Assay in all cases: NCI-60 cell line screen, 48 h
[1] = tested on: DMS 273 small cell lung
[2] = tested on: UACC-257 melanoma
[3] = tested on: SK-MEL-28 melanoma
[4] = tested on: HT29 colon
[5] = tested on: CCRF-CEM leukemia
[6] = tested on: UACC-62 melanoma
[7] = tested on: DMS 114 small cell lung
[8] = tested on: MOLT-4 leukemia
[9] = tested on: MCF7 breast
[10] = tested on: MDA-MB-435

Row | Structure (SMILES) | TGI [1] [µM] | TGI [2] [µM] | TGI [3] [µM] | TGI [4] [µM] | TGI [5] [µM] | TGI [6] [µM] | TGI [7] [µM] | TGI [8] [µM] | GI50 [1] [µM] | GI50 [2] [µM] | GI50 [3] [µM] | GI50 [4] [µM] | GI50 [5] [µM] | GI50 [6] [µM] | GI50 [8] [µM] | TGI [9] [µM] | TGI [10] [µM] | GI50 [9] [µM] | GI50 [10] [µM]
1 | CNS(=O)(=O)NNS(=O)(=O)c1ccc(Br)cc1 | > 100 | > 100 | > 100 | > 100 | > 100 | > 100 | > 100 |  |  |  |  |  |  |  |  |  |  |  | 
2 | O=S(=O)(c1ccccc1)C1CN2OC1(S(=O)(=O)c1ccccc1)CC2c1ccc(Br)cc1 (centres undefined) | > 100 | > 100 | > 100 | > 100 | > 100 | > 100 | > 100 | > 100 |  |  |  |  |  |  |  |  |  |  | 
3 | CCCN1CN(C(C(=O)N[C@@H]2C(=O)N3C2SC(C)(C)C3C(=O)O)c2ccc(O)cc2)CSC1=S (some centres undefined) | > 100 | > 100 | > 100 | > 100 | > 100 | > 100 | 65.3 | > 100 |  |  |  |  |  |  |  |  |  |  | 
4 | Cc1cc(C)nc(NS(=O)(=O)c2ccc(NC(=O)c3cccc4c(Nc5ccc(S(N)(=O)=O)cc5)c5ccccc5nc34)cc2)n1 | > 100 | 72.4 | > 29.3 | 97.1 | > 25.1 | > 100 | 42.6 | 29.3 |  |  |  |  |  |  |  |  |  |  | 
5 | COc1c[c]([Hg][O]C(C)=O)c(OC)c(NC(=O)CC(C)=O)[c]1[Hg][O]C(C)=O | 36.7 | 7.46 | 3.61 | 19.6 | 5.43 | 24.1 |  | 6.85 | 13.6 | 2.73 | 1.83 | 4.21 | 1.75 | 11.4 | 2.32 |  |  |  | 
6 | Cc1ccc(S(=O)(=O)c2ccc(N)cc2)cc1 | > 100 | > 100 | > 100 | > 100 | > 100 | > 100 |  | > 100 |  |  |  |  |  |  |  |  |  |  | 
7 | CC(C)C(=O)NS(=O)(=O)c1ccccc1 |  | > 100 | > 100 | > 100 | > 100 | > 100 | > 100 | > 100 |  |  |  |  |  |  |  |  |  |  | 
8 | CC(C)C(=O)Nc1nc2c(ncn2C2OC(CO)C(O)C2O)c(=O)[nH]1 (centres undefined) | > 100 | > 100 | > 100 | > 100 | > 100 | > 100 | > 100 | > 100 |  |  |  |  |  |  |  |  |  |  | 
9 | O=Cc1ccc2c(c1-c1c(C=O)ccc3c1OCO3)OCO2 | > 100 | > 100 | > 100 | > 100 | > 100 | > 100 | > 100 | > 100 |  |  |  |  |  |  |  |  |  |  | 
10 | CC(C)N(C(=O)C12C3C4C1(I)C1C2C3(I)C41C(=O)N(C(C)C)C(C)C)C(C)C (centres undefined) | > 100 | > 100 | > 100 | > 100 | > 61.2 | > 100 |  | > 100 |  |  |  |  |  |  |  |  |  |  | 
11 | COC1(OC)CC2C(=O)N(Cc3ccccc3)C1C=C2S(=O)(=O)c1ccccc1 (centres undefined) |  | 34.5 | 31.9 | 33.8 | 44.9 | 31.3 | 31.9 | 50.3 |  |  |  |  |  |  |  |  |  |  | 
12 | Cc1cc(NS(=O)(=O)c2ccc(Nc3c4ccccc4nc4c(C(=O)N5CCN(CCO)CC5)ccc(Cl)c34)cc2)no1 | > 100 | > 100 | > 100 | > 100 | 74 | > 100 | > 100 | > 100 |  |  |  |  |  |  |  |  |  |  | 
13 | COC(=O)/C=C/c1c(CC=C(C)C)ncn1C | > 100 | > 100 | > 100 | > 100 | > 100 | > 100 | > 100 | > 100 |  |  |  |  |  |  |  |  |  |  | 
14 | COC(=O)[C@H]1C=C[C@@H](C)n2c(=O)c3cc4ccccc4cc3c(=O)n21 | > 100 | > 100 | > 100 |  | > 100 |  | > 100 | > 100 |  |  |  |  |  |  |  |  |  |  | 
15 | O=C(/C=C/c1ccccc1Cl)NC1C=Nc2ccc([N+](=O)[O-])cc2NC1 (centres undefined) | > 100 | > 100 | > 100 |  | 84.8 | > 100 | > 100 | 49.3 |  |  |  |  |  |  |  |  |  |  | 
16 | O=P1(c2ccccc2)CCCCC1 | > 100 | > 100 | > 100 | > 100 | > 100 | > 100 | > 100 | > 100 |  |  |  |  |  |  |  |  |  |  | 
17 | COc1cc(C=O)c(-c2cc(OC)c(OC)cc2C=O)cc1OC | > 100 | > 100 | > 100 | > 100 | > 100 | > 100 | 88.3 | > 100 |  |  |  |  |  |  |  |  |  |  | 
18 | N#CC(C(=O)C(=O)Nc1ccc(Cl)cc1)c1ccccc1 (centres undefined) | > 100 | > 100 | > 100 | > 100 | > 100 | 77.9 | > 100 | > 100 |  |  |  |  |  |  |  |  |  |  | 
19 | CC(=O)O[C@H]1CCC2[C@@H]3CCC4Nc5[nH]ncc5C[C@]4(C)C3CC[C@@]21C (some centres undefined) | > 100 | 72.4 |  | > 100 | 66.5 | 60.3 | > 100 | 58.6 |  |  |  |  |  |  |  |  |  |  | 
20 | CCCO/S(=N\S(=O)(=O)c1ccccc1)c1ccccc1[N+](=O)[O-] (centres undefined) | > 100 | > 100 | > 100 | > 100 | > 100 | > 100 | > 100 | > 100 |  |  |  |  |  |  |  |  |  |  | 
21 | CC(=O)[O][Ga]([Br])[O]C(C)=O | > 100 | > 100 | > 100 | > 100 | > 100 | > 100 |  | > 100 | > 100 | > 100 | > 100 | > 100 | > 100 | > 100 | > 100 |  |  |  | 
22 | O=CN1CCN(CC(O)CN2CCCCC2)CC1 (centres undefined) |  | > 100 | > 100 | > 100 | > 100 | > 100 |  | > 100 |  |  |  |  |  |  |  | > 100 | > 100 |  | 
23 | COc1cc(OC)c(/C=C/c2c3ccccc3cc[n+]2C)c(OC)c1 |  | 6.01 | 13.2 | 10.3 | > 72.1 | 9.58 |  | 32.8 |  | 0.674 | 2.34 | 1.64 | 2.08 | 1.51 | 3.1 | 18.2 | 10.1 | 1.02 | 0.781
24 | c1ccc2c(c1)c1c(c3ccccc32)CN2CCCC2C1 (centres undefined) |  | 20.3 | 12.9 | > 34.8 | 15.5 | 12.8 |  | > 100 |  |  |  |  |  |  |  | 11.4 | 31.6 |  | 
25 | COc1ccc(O)c(C(=O)c2ccc(C(=O)N[C@H]3CCCNC[C@@H]3NC(=O)c3ccncc3)cc2)c1F |  | > 25 | > 25 | > 25 | 6.42 | > 25 |  | 11.6 |  | > 25 | > 18.4 | 16.3 | 0.721 | 9.26 | 1.38 | > 25 | > 25 | 0.823 | > 14.9
